Source: patent US8609719B2, “Propargylated aminoindans, processes for preparation, and uses thereof” (priority 2006, dated 2013)
Where a name gives a salt, the structure may show the parent alone. Read-outs that look alike come from different tables or passages of the source.

Experiments:
MAO-B = target: T1, MAO-B (Rattus norvegicus, UniProt P19643); assay: Inhibition of MAO activity in vitro (PEA substrate); type: biochemical
T1 construct: from tissue; host or cells: brain, liver and intestine (duodenum) of dosed rats
T1 sequence (P19643 1-520): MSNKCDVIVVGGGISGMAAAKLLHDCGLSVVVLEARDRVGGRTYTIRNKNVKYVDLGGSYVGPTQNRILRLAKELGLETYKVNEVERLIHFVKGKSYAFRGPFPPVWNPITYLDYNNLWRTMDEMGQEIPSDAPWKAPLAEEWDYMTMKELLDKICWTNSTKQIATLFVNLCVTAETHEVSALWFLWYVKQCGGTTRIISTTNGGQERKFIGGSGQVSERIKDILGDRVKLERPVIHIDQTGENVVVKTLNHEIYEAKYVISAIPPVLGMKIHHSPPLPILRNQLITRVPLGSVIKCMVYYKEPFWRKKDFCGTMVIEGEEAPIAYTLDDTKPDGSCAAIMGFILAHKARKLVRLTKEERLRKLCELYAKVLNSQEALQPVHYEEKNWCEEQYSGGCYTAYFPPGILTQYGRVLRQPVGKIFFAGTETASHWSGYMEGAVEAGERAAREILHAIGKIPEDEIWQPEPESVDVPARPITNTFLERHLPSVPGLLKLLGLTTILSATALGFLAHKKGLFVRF
Method: The MAO enzyme source was a homogenate of rat brain in 0.3M sucrose. The homogenate was diluted appropriately, and pre-incubated with serial dilutions of test compounds—diluted in phosphate buffer containing clogyline when 2-phenylethylamine (PEA) is the substrate, and diluted in phosphate buffer containing selegiline when 5-hydroxytryptamine (5-HT) is the substrate—for 60 minutes at 37° C. 14C-Labeled substrates (PEA for MAO-B determination and 5-HT for MAO-A determination) were then added, and the incubation continued for a further 20 minutes (PEA) or 30 minutes (5-HT). Substrate concentrations used were 10 μM (PEA) and 100 uM (5-HT). Enzyme concentration was chosen so that not more than 10% of the substrate was metabolized during the course of the reaction. Deaminated products were extracted into toluene-ethyl acetate (1:1 v/v) containing 0.4% (w/v) 2,5-diphenyloxazole (ppo) prior to determination by liquid scintillation counting. Radioactivity in the eluate indicated the production of neutral and acidic metabolites formed as a result of MAO activity. Activity of MAO in the sample was expressed as a percentage of control activity in the absence of inhibitor after subtraction of appropriate blank values. The activity determined using PEA as substrate is referred to as MAO-B, and that determined using 5-HT as MAO-A.
Concentrations of each inhibitor producing 50% inhibition of substrate metabolism (IC50) were calculated from the inhibition curves, and are shown in Table 1.

BuChE from human serum = target: T2, BuChE from human serum (Homo sapiens, UniProt P06276); assay: Inhibition of butyrylcholinesterase activity in vitro (Ellman, stopped time assay); type: biochemical; parameters: ki (bimolecular rate constant): unit not given here
T2 construct: BuChE from human serum (C-9971); purchased Sigma-Aldrich Israel C-9971; host or cells: purified from human serum
T2 sequence (P06276 29-602): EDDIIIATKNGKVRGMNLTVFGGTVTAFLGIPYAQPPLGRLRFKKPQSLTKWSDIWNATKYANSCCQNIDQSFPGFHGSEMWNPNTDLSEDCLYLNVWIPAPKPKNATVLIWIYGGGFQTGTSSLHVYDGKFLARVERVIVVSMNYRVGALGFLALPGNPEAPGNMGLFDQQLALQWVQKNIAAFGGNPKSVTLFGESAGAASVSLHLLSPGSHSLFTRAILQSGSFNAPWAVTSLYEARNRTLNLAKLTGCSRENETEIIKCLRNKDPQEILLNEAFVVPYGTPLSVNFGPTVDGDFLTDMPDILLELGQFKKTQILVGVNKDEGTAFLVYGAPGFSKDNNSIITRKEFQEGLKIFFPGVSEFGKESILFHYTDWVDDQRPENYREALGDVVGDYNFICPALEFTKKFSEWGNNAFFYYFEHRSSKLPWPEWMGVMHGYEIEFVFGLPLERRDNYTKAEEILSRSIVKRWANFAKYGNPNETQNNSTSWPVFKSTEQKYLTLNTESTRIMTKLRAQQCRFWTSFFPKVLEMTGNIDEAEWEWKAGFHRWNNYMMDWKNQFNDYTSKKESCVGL
Method: BuChE from human serum (C-9971), butyrylthiocholine iodide (BuTh, B3253), bovine serum albumin (BSA, A-2153) 5,5′-dithiobis(2-nitrobenzoic acid) (DTNB, D8130) were obtained from Sigma-Aldrich Israel. BuChE was dissolved in phosphate buffer pH 8.0 containing 0.01% sodium azide (NaAz) and 1 mM EDTA and diluted to give a concentration of 35.9 units/ml. This solution was divided into aliquots of 0.5 ml, which were stored at −70° C. until use.
The inhibitory activity against BuChE was determined by the method of Ellmann et al. (Biochemical Pharmacology, 1961 (7) 88-95) using BuTh as a substrate. To characterize the carbamoylation step, a traditional stopped time assay was performed, in which BuChE was incubated at 37° C. with a minimum of 5 different concentrations of inhibitor in the assay buffer, and aliquots were transferred to an ELISA multiscan microplate reader (Labsystems) at various times for the determination of residual BuChE activity, with Ascent PC® software. The rate of reaction was measured at 412λ at 37° C. in 0.2 ml wells containing […] 0.023 units per ml, DTNB 0.4-0.5 mM, AcTh 0.50 or 1 mM and BSA (0.05%) in 50 mM phosphate buffer as described above. For all compounds measurements were made every 2 min for 15 min and then every 15 min for 3 hr.
The inhibition of BuChE by carbamates involves the formation of a reversible complex (EOH•CX), followed by carbamoylation of the enzyme to form (EOC) and a leaving group (HX). The carbamoylated enzyme is then hydrolyzed by water to regenerate the free enzyme (EOH). The formation of the reversible complex is represented by the equilibrium constant: KD. For the carbamoylation phase of the inhibition process the unimolecular rate constant is represented by kmax, and the bimolecular rate constant by ki.

MAO = MAO inhibition in rat organs after chronic administration, overall conclusion; type: in vivo; details: rats, P.O. daily for seven days
Method: 30 rats were separated randomly into 5 testing groups of 6 rats each. Group 1 was the control group to which no drug was administered. Ethyl-hydroxymethyl-carbamic acid 3-R-(prop-2-ynylamino)-indan-5-yl ester fumarate (2:1) was administered to groups 2, 3, 4 in dosages of 150, 75, and 37.5 μmol/kg respectively, daily, perorally (“P.O.”) for seven consecutive days. Water was used as a vehicle.
Rats were sacrificed, out of sight of the other rats, 2 hours after the last administration. Brains were removed into Petri dishes on ice, the cerebellums were […], and the brains cut into halves for analysis. Livers and intestines were removed for MAO determination. Organs were homogenated for enzyme inhibition analysis.
The MAO inhibition after administration of ethyl-hydroxymethyl-carbamic acid 3-R-(prop-2-ynylamino)-indan-5-yl ester fumarate (2:1) in various organs is listed in Table 4 calculated in percent relative to the control group.

Row | Compound | IC50 (MAO-B; rat brain homogenate, PEA 10 μM, 60 minutes pre-incubation at 37° C., read-out: IC50 for MAO-B inhibition) [µM] | inhibition of butyrylcholinesterase, in words (BuChE from human serum) | ki (bimolecular rate constant) (BuChE from human serum; BuChE, 37° C.) | kmax (unimolecular carbamoylation rate constant) (BuChE from human serum; BuChE, 37° C.) [min⁻¹] | Kd (BuChE from human serum; BuChE, 37° C., read-out: KD (equilibrium constant of reversible complex)) [µM] | organ selectivity of MAO inhibition, in words (MAO) | IC50 (MAO-B) [µM] | Kd (BuChE from human serum) [µM]
1 | C#CCN[C@@H]1CCc2ccc(OC(=O)N(CC)CO)cc21 [R-HCPAI, Ethyl-hydroxymethyl-carbamic acid 3-R-(prop-2-ynylamino)-indan-5-yl ester fumarate (2:1)] | 599 | weak inhibitor | 0.936 ± 0.06 | 0.104 ± 0.043 | 111 ± 50 | brain-selective MAO inhibition | – | –
2 | CNC(=O)Oc1ccc2c(c1)[C@H](N)CC2 [R-MCAI, Methyl-carbamic acid 3-R-amino-indan-5-yl ester hydrochloride] | – | potent inhibitors | 14.5 ± 0.42 | 0.516 ± 0.050 | – | – | > 1000 | 36 ± 5
3 | C#CCN[C@@H]1CCc2ccc(OC(=O)NC)cc21 [R-MCPAI, Methyl-carbamic acid 3-R-(prop-2-ynylamino)-indan-5-yl ester hydrochloride] | – | potent inhibitors | 31.3 ± 2.0 | 0.65 ± 0.03 | – | – | 42 | 21 ± 2
